Data: article PMC9743090, “Induction of Ferroptosis in Glioblastoma and Ovarian Cancers by a New Pyrrole Tubulin Assembly Inhibitor” (Journal of Medicinal Chemistry, 2022)

Assays:
U-87 MG GBM cells = test: U-87 MG proliferation assay (cell count, Trypan Blue); assay type: cell-based; settings: Homo sapiens, 48 h incubation, read-out: IC50 cell viability U-87 MG
Experimental: The methodology for the evaluation of the growth of human MCF-7 breast carcinoma cells was previously described, except that cells were grown for 96 h for IC50 determinations.[66] U-87 MG and OVCAR-3 proliferation assays were performed plating 10^4 cells/cm^2 in a Multiwell 24. The day after, cells were treated with compound 15, and DMSO was used as a control. Cells were counted 48 h later with a Bürker counting chamber, after dilution in TrypanBlue (#T6146 Sigma-Aldrich).
All experiments were performed multiple times to reach statistical significance, as specified in the figure legends. Statistical analysis was performed using GraphPad Prism version 7.0 for Mac. IC50 values were calculated by using a nonlinear regression formula, using the percentage of cells number and the logarithmic value of drug concentrations. Data were analyzed with analysis of variance (one-way ANOVA test). Data with *p < 0.05 were considered statistically significant.

tubulin = test: Inhibition of tubulin polymerization (assembly assay); assay type: biochemical; settings: tubulin at 10 μM, read-out: Tubulin IC50 ± SD
Experimental: The assembly reaction mixtures contained 0.8 M monosodium glutamate (pH 6.6 with HCl in a 2 M stock solution), 10 μM tubulin, 4% (v/v) DMSO, and varying concentrations of the drug. Following a 15 min preincubation at 30 °C, samples were chilled on ice, GTP to 0.4 mM was added, and turbidity development was followed at 350 nm in a temperature-controlled recording spectrophotometer for 20 min at 30 °C. The extent of reaction was measured. Full experimental details were previously described.[63] For the colchicine binding assay, reaction mixtures contained 1.0 μM tubulin, 5.0 μM [^3H]colchicine, and 5.0 or 1.0 μM inhibitor and were incubated for 10 min at 37 °C. Complete details were described previously.[64]

Q: How did the IC50 (U-87 MG GBM cells) turn out when `COc1cc(C(=O)c2cn(-c3ncccn3)cc2-c2ccco2)cc(OC)c1OC` [Compound 15, (4-(Furan-2-yl)-1-(pyrimidyl-2-yl)-1H-pyrrol-3-yl)(3,4,5-trimethoxyphenyl)methanone] was run?
A: 10.1 nM

Q: And the IC50 (tubulin)?
A: 520 ± 70 nM
